Test results: US9409952B2, “Peptide-compound cyclization method” (Chugai Seiyaku Kabushiki Kaisha, priority 2011, dated 2016)
Like-named read-outs stand apart in the source and are kept apart here. Starred links: 1 amine or outer side, 2 acyl side, 3 side chain; linkers in the order of their positions; H or OH if unused. Positions of bridges follow the written chain, without caps; N, C: chain ends. Non-standard residues stand in square brackets, D forms with d. Residues, ends and D or L forms follow the SMILES beside them. *: point of attachment. Phe(3-(CH2)4CO) = O=C([C@H](Cc1cccc(CCCCC(=O)[*:3])c1)N[*:1])[*:2]; NMePhe(3-Cl) = CN[C@@H](Cc1cccc(Cl)c1)C(=O)O; NMeF = CN[C@@H](Cc1ccccc1)C(=O)O; NMeGABA = CN(CCCC(=O)[*:2])[*:1]; NMeL = CN[C@@H](CC(C)C)C(=O)O; NMeV = CN[C@H](C(=O)O)C(C)C; NMeA = CN[C@@H](C)C(=O)O; Piperidide = C1CCN(*)CC1; Sar = CNCC(=O)O

Key:
[1] = Metabolic stability in human hepatic microsome; assay type: in vitro ADME; details: microsomes
[2] = PAMPA (parallel artificial membrane permeability assay); assay type: in vitro ADME; details: PAMPA
Procedure, shortened: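 Artificial membrane was 10% (w/v) egg lecithin plus 0.5% (w/v) cholesterol in dodecane on a PVDF filter. A 10 mM DMSO stock was added at 0.5% (v/v) to donor buffer (50 mM MOPSO, pH 6.5, 5.0% glycocholic acid). After 18 h at 37 °C, LC/MS or LC/UV gave donor and acceptor levels for Pe.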

[3] = pH 7.4, human hepatic microsome, NADPH(+), read-out: CL NADPH(+)
[4] = membrane permeation rate (Pe), 50 mM MOPSO buffer pH 6.5 with 5.0% glycocholic acid, 37° C., 18 hours, read-out: iPAMPA Pe

| Structure (SMILES) | microsomal CLint at 1 uM [1, 3] [µL/min/mg] | Papp at 18 hours, 50 µM [2, 4] [×10⁻⁶ cm/s] | microsomal CLint at 1 uM ([1]; human, pH 7.4, CL NADPH(+)) [µL/min/mg] | Papp at 18 hours, 50 µM ([2]; pH 6.5) [×10⁻⁶ cm/s] |
| --- | --- | --- | --- | --- |
| CC[C@H](C)[C@@H]1NC(=O)[C@H](CC(C)C)NC(=O)[C@H](C)N(C)C(=O)[C@H](CC(C)C)N(C)C(=O)[C@H](CC(C)C)NC(=O)[C@H](Cc2cccc(Cl)c2)N(C)C(=O)[C@H]([C@@H](C)O)NC(=O)[C@H](C)N(C)C(=O)[C@H](C(C)C)NC(=O)[C@H](C)N(C)C(=O)C[C@@H](C(=O)N(C)[C@@H](Cc2ccccc2)C(=O)N(C)[C@@H](CC(C)C)C(=O)N[C@H](C(=O)N2CCCCC2)[C@@H](C)CC)NC1=O [DP-950] ([NMeA]V[NMeA]T[NMePhe(3-Cl)]L[NMeL][NMeA]LID[NMeF][NMeL]I-Piperidide; lactam N-11) | 12 | 0.1 |  |  |
| CC(C)C[C@@H]1NC(=O)[C@@H](C(C)C)NC(=O)C[C@@H](C(=O)N2CCCCC2)NC(=O)[C@H](Cc2ccccc2)N(C)C(=O)[C@H](CC(C)C)N(C)C(=O)[C@H](Cc2ccccc2)NC(=O)[C@H](C)N(C)C(=O)[C@H]([C@@H](C)O)NC1=O [DP-701] ([dV]LT[NMeA]F[NMeL][NMeF]D-Piperidide; lactam N-8) | 69 | 31 |  |  |
| CC(C)C[C@H]1C(=O)N[C@H](C(=O)N2CCCCC2)Cc2cccc(c2)CCCCC(=O)N[C@@H]([C@@H](C)O)C(=O)N(C)[C@@H](C)C(=O)N(C)[C@@H](Cc2ccccc2)C(=O)NCC(=O)N(C)[C@@H](Cc2ccccc2)C(=O)N(C)[C@@H](CC(C)C)C(=O)N(C)[C@@H](CC(C)C)C(=O)N1C [DP-843] (T[NMeA][NMeF]G[NMeF][NMeL][NMeL][NMeL][Phe(3-(CH2)4CO)]-Piperidide; lactam N-9) | 505 | 31 |  |  |
| CC(C)C[C@H]1C(=O)N[C@@H]([C@@H](C)O)C(=O)N(C)[C@@H](C)C(=O)N(C)[C@@H](CC(C)C)C(=O)N(C)[C@@H](Cc2ccccc2)C(=O)N[C@H](C(=O)N2CCCCC2)CC(=O)N(C)CCCC(=O)N(C)[C@@H](C)C(=O)N1C [DP-524] ([NMeGABA][NMeA][NMeL]T[NMeA][NMeL][NMeF]D-Piperidide; lactam N-8) | 162 | 16 |  |  |
| CC[C@H](C)[C@H](NC(=O)[C@@H]1CC(=O)N[C@@H](C)C(=O)N[C@@H](CC(C)C)C(=O)N2CCC[C@H]2C(=O)N[C@@H](C)C(=O)N[C@@H](CC(C)C)C(=O)N(C)CC(=O)N[C@@H]([C@@H](C)O)C(=O)N[C@@H](Cc2ccccc2)C(=O)N[C@@H](CC(C)C)C(=O)N(C)[C@@H](Cc2ccccc2)C(=O)N[C@@H](C(C)C)C(=O)N1)C(=O)N1CCCCC1 [DP-40] (ALPAL[Sar]TFL[NMeF]VDI-Piperidide; lactam N-12) |  |  | 38 | 5.8 |
| CC(C)C[C@@H]1NC(=O)[C@H](CC(C)C)N(C)C(=O)[C@H]([C@@H](C)O)NC(=O)[C@H](Cc2ccccc2)N(C)C(=O)C[C@@H](C(=O)N2CCCCC2)NC(=O)[C@H](CC(C)C)N(C)C(=O)[C@H](Cc2c[nH]cn2)NC(=O)[C@H](Cc2ccccc2)N(C)C(=O)[C@H](Cc2ccccc2)N(C)C1=O [DP-905] ([NMeF]T[NMeL]L[NMeF][NMeF]H[NMeL]D-Piperidide; lactam N-9) | 73 | 0.6 |  |  |
| CC(C)C[C@H]1C(=O)N[C@@H](Cc2ccccc2)C(=O)N(C)[C@@H](C(C)C)C(=O)N[C@@H]([C@@H](C)O)C(=O)N[C@H](C(=O)N(C)[C@@H](Cc2ccccc2)C(=O)N(C)[C@@H](Cc2ccccc2)C(=O)N[C@@H](C)C(=O)N2CCCCC2)CC(=O)N(C)[C@@H](C)C(=O)N(C)[C@@H](C)C(=O)N[C@@H](C(C)C)C(=O)N(C)[C@@H](Cc2ccccc2)C(=O)NCC(=O)N1C [DP-456] ([NMeA][NMeA]V[NMeF]G[NMeL]F[NMeV]TD[NMeF][NMeF]A-Piperidide; lactam N-10) | 29 | 41 |  |  |
| CC(C)C[C@H]1C(=O)N[C@@H]([C@@H](C)O)C(=O)N(C)[C@@H](C)C(=O)N(C)[C@@H](CC(C)C)C(=O)N[C@H](C(=O)N2CCCCC2)CC(=O)N(C)CCCC(=O)N[C@@H](C)C(=O)N(C)[C@@H](Cc2ccccc2)C(=O)N[C@@H](Cc2ccccc2)C(=O)N1C [DP-128] ([NMeGABA]A[NMeF]F[NMeL]T[NMeA][NMeL]D-Piperidide; lactam N-9) | 276 | 23 |  |  |
